Data on two compounds can be found in publication PMC6261997, “Synergistic enzymatic and bioorthogonal reactions for selective prodrug activation in living systems” (Nature Communications, 2018).

For one series, the system named is Saos-2 cells. The series is described as follows: MTT cell viability / cytotoxicity assay, Saos-2 cells. The class given is cell-based. Particulars: for EC50: Homo sapiens; for EC50 ratio CCC-HEH-2/Saos-2 / EC50 ratio HUVECs/Saos-2: ratio of 72 h EC50 values. How it is done: (§1) Cells were plated in flat-bottom 96-well plates at a density of 3 × 10^3 cells per well. After 12 h of cell attachment, the cell culture medium was replaced with 100 μL of pre-warmed media containing the compounds at different concentrations. After 24–72 h of incubation, cell proliferation was assessed by the MTT assay. A fresh mixture of 10 μL of thiazolyl blue tetrazolium bromide (MTT) and 90 μL of medium were freshly added to each well. After incubation for 4 h, the medium was gently removed. The formazan crystals that formed were dissolved in 110 μL of DMSO, and the absorbance was subsequently measured with a plate reader (Perkin Elmer) at 490 nm. EC50 values were calculated using Origin software. To measure the cytotoxicity of 2, HeLa cells, HUVECs, Saos-2 cells and CCC-HEH-2 cells were incubated with 100 μL of 1–500 μM 2 for 24 h, and then, cell viability was determined. To measure the cytotoxicity of TCO-Dox or Dox, HeLa cells, HUVECs, Saos-2 cells or CCC-HEH-2 cells were incubated with 200 μL of 0.001–10 μM TCO-Dox or Dox for 72 h, and the cell viability was determined. To determine the cytotoxicity of activated Dox, HeLa cells, HUVECs, Saos-2 cells or CCC-HEH-2 cells were pre-incubated with 100 μL of 500 μM 2 for 6 h, and then, 2 was removed and 200 μL of 0.0001–10 μM TCO-Dox was added for 72 h of incubation, and cell viability was determined. […]
Prodrug activation efficacy in cells: Cells were plated on flat bottom 96-well plates at a density of 3x10^3 cells per well. After 12 h attachment, cells were incubated with 100 µL 500 µM of 2 for 6 h before removing 2 and the addition of 200 µL 0.0001-10 µM of TCO-Dox. Cells were further incubated for 72 h before measuring the viability by the MTT […]
Clonogenic assay of cells in vitro: Clonogenic assay was performed according to the standard protocol.6 2×10^5 attached cells were treated with 500 µM of 2 for 6 h in culture dishes. Cells were then detached, re-suspended in cultural medium and counted accurately. The cell suspension was diluted into the desired seeding concentration and cells were seeded in 6-well plates at a density of 200 cells per well for CCC-HEH-2 and 400 cells per well for HeLa, Saos-2 and HUVECs. After incubation for 10 days, the cultural medium was removed and cells were rinsed carefully with PBS. 2 mL of a mixture of 6.0% (vol/vol) glutaraldehyde and 0.5% (wt/vol) crystal violet was added and kept for 30 min.
The glutaraldehyde crystal violet mixture was removed carefully. The colonies were rinsed with water and dried in normal air at room temperature. The number of the colonies was counted using a stereomicroscope.
When untreated cells are plated as a single-cell suspension at low densities, they will grow to colonies. The plating efficiency (PE) is the ratio of the number of colonies to the […]
(Supplementary Equation 1)
The number of colonies that arise after treatment of cells, expressed in terms of PE, is called the surviving fraction (SF): […]

Another series has as its system HUVECs. The series is described as follows: MTT cell viability / cytotoxicity assay, HUVECs. The format is cell-based. Particulars: for EC50: Homo sapiens, HUVEC. How it is done: as §1, with “[…],” for “Saos-2 cells or CCC-HEH-2 cells were pre-incubated with 100 μL of 500 μM 2 for 6 h,”
(§2) Prodrug activation efficacy in cells: Cells were plated on flat bottom 96-well plates at a
(§3) density of 3x10^3 cells per well. After 12 h attachment, cells were incubated with 100 µL
(§4) 500 µM of 2 for 6 h before removing 2 and the addition of 200 µL 0.0001-10 µM of […]

Another series concerns CCC-HEH-2 cells. The series is described as follows: MTT cell viability / cytotoxicity assay, CCC-HEH-2 cells. The format is cell-based. Particulars: Homo sapiens, read-out: EC50, CCC-HEH-2. How it is done:
as §1

Series [1] can be described thus: UPLC-MS/MS pharmacokinetic analyses in tumour, liver and plasma. The format is in vivo, BALB/c nude mice. Particulars: i.v. 30 mg kg-1 TCO-Dox.
Description: For in vivo prodrug activation, mice received an i.v. injection of 50 mg kg^−1 2 and a subsequent 30 mg kg^−1 TCO-Dox after a 2-h interval. After different time intervals, blood samples were collected from the tail veins, and then, the tumours and livers were harvested for UPLC-MS/MS analysis.
UPLC-MS/MS analyses: UPLC-MS/MS metabolomic analyses were performed using a
multiple reaction-monitoring mode (MRM). Data acquisition and processing were performed using LabSolutions version 5 software. Measurements were carried out at
Dox, solvent A consisted of 0.1% formic acid in water and solvent B consisted of 0.1% formic acid in mass spectrometric grade acetonitrile; (2) for compound TCO-Dox, solvent A consisted of 100% water and solvent B consisted of 100% mass spectrometric grade acetonitrile. Injection volume was 2 or 10 L. The mass spectrometer was interfaced with the liquid chromatograph using an electrospray ion source. The nitrogen nebulizing gas flow was set at 10 L min-1 and the drying gas flow at 15 mL min-1. 4500 V were used for the interface voltage. The temperature of the block heater was maintained at 400 °C and the one of the desolvation line at 250 °C. The MRM transitions were
Dox. The collision gas used was argon at 230 kPa. The dwell time was set to 100 msec and the pause time to 3 msec.
Sample preparation: blood samples were collected from the tail vein of mice. Plasma […]
The next series deals with HeLa tumours. The series is described as follows: Tumour inhibition test, subcutaneous HeLa xenograft. The class given is in vivo, BALB/c nude mice. Particulars: for tumour growth: i.v., three courses (day 0, 3, 6), 50 mg kg^−1 2, 30 mg kg^−1 TCO-Dox, 5 mg kg^−1 Dox, or 50 mg kg^−1 2 then 30 mg kg^−1 TCO-Dox after 2 h. The procedure: All animal studies were performed in accordance with the Institutional Animal Use and Care Regulations approved by the National Institutes of Health Clinical Center/Animal Care and Use Committee (NIH CC/ACUC). Athymic female nude mice (5–6 weeks old) were purchased from Beijing Huafukang Bioscience Co., Ltd., and raised in a specific-pathogen-free barrier facility. Tumour-bearing mice were established by subcutaneously injecting a suspension of 10^6 HeLa cells per mouse into the front flank of each nude mouse.
After 14 days, the mice were sacrificed.

The nature of series [2]: In vitro decaging of TCO-Dox by 2 (UPLC-MS). Particulars: TCO-Dox mixed with 2 in 25% acetonitrile in H2O, 37 °C. The procedure:
The Tz counterpart prodrug TCO-Dox was prepared according to previously published procedures using the axial tautomer of TCO[27]. After the selection of optimized Tz and TCO, the decaging reactions in our study were further characterized (Fig. 2d). After mixing 2 μL of 10 mM TCO-Dox with 2.5 μL of 20 mM 2 in 25% acetonitrile in H2O at 37 °C, the reaction mixture was analysed by ultra-performance liquid chromatography-mass spectrometry (UPLC-MS) at different time points. […] Similarly, we prepared TCO-caged coumarin (TCO-CMR, see Supplementary Methods for a detailed synthesis protocol)[23]. According to a previously developed fluorescence liberation, the fluorescence of coumarin was restored rapidly in the presence of Tz derivatives (Supplementary Fig. 6).

In another series the test system is HeLa cells. In words: MTT cell viability / cytotoxicity assay, HeLa cells. The format is cell-based. Particulars: for EC50: Homo sapiens, HeLa; for EC50 ratio CCC-HEH-2/HeLa / EC50 ratio HUVECs/HeLa: ratio of 72 h EC50 values. How it is done:
as §1, with “[…],” for “Saos-2 cells or CCC-HEH-2 cells were pre-incubated with 100 μL of 500 μM 2 for 6 h,”
as §2, §3, §4

Series [3] can be described thus: Systemic toxicity in treated mice (body weight, death, organ histology).
Description: When the tumour volume reached approximately 80–100 mm^3, the mice were divided into five groups (n = 8) and used for therapeutic studies. Mice in the treatment group received an i.v. injection of 50 mg kg^−1 2 and a subsequent 30 mg kg^−1 TCO-Dox after a 2-h interval. In the control groups, mice were received 50 mg kg^−1 2, 30 mg kg^−1 TCO-Dox, 5 mg kg^−1 Dox or saline. The mice received three treatment courses on day 0, day 3 and day 6. Tumour size and body weight were measured every 2 days. After 14 days, the mice were sacrificed. Tumours and main organs were obtained for histological examination with HE staining.
Effect of the dosage of Dox to the mice body weight.
The arrows on x-axis marked the administrations of Dox (n= 8).
indicate standard deviation.
Histological examination of heart, liver, spleen, lung and
Organs were harvested after treatment at day 14 and stained by hematoxylin and

Like-named read-outs stand apart in the source and are kept apart here.

By EC50 is commonly meant the concentration at which the effect is half-maximal. Consider `COc1cccc2c1C(=O)c1c(O)c3c(c(O)c1C2=O)CC(O)(C(=O)CO)CC3OC1CC(NC(=O)OC2C=CCCCCC2)C(O)C(C)O1` (stereo not shown) [TCO-Dox], for which the EC50 amounted to 7570 nM in the series on Saos-2 cells (SAOS-2, read-out: EC50, Saos-2); 5810 nM in the series on HUVECs (read-out: EC50, HUVECs, 72 h cytotoxicity, MTT, Activated Dox: cells pre-incubated with 500 μM 2 for 6 h, then TCO-Dox 72 h); 367 nM with HUVECs (read-out: EC50 against HUVECs, cells pre-incubated with 300 μM 2 for 6 h, then TCO-Dox 72 h); 272 nM with HUVECs (read-out: EC50 against HUVECs, cells pre-incubated with 500 μM 2 for 6 h, then TCO-Dox 72 h); 6170 nM in the series on CCC-HEH-2 cells; 6790 nM in the series on HeLa cells (read-out: EC50, HeLa, 72 h cytotoxicity, MTT, Activated Dox: cells pre-incubated with 500 μM 2 for 6 h, then TCO-Dox 72 h). Also, the EC50 in the series on HeLa cells (read-out: EC50 against HeLa cells, cells pre-incubated with 300 μM 2 for 6 h, then TCO-Dox 72 h) worked out at 1200 nM; with HeLa cells (read-out: EC50 against HeLa cells, cells pre-incubated with 500 μM 2 for 6 h, then TCO-Dox 72 h), 29.8 nM. Further, in the series on Saos-2 cells, the “EC50 ratio CCC-HEH-2/Saos-2” value worked out at 0.815. Further, in the series on Saos-2 cells, the “EC50 ratio HUVECs/Saos-2” value is given as 0.767. The “EC50 higher than that of Dox, HUVECs” value with HUVECs (72 h) is recorded as “more than 40 fold”. In addition, the “concentration of TCO-Dox in plasma” value in series [1] is “relatively high concentration of TCO-Dox remaining in the blood”. Further, the “histological examination of dissected tumours (HE staining)” value in the series with HeLa tumours (after treatment for 14 days) was “the HeLa cells remained normal”. Further, in the series with HeLa tumours, the tumour growth entry is on record as “rapid growth similar to that observed in the saline control group”. Besides, the “time to complete liberation of Dox” value in series [2] is at most 2 min. In the series on HeLa cells (72 h), the “EC50 higher than that of Dox, HeLa cells” value was about 10 fold. In the series with HeLa cells (pre-incubation 6 h, then TCO-Dox 72 h), the “EC50 against HeLa cells with 300 μM 2 higher than with 500 μM 2” value is listed as “approximately 40 fold”. Further, in the series on HeLa cells, the “EC50 ratio CCC-HEH-2/HeLa” value is recorded as 0.908. In addition, the “EC50 ratio HUVECs/HeLa” value with HeLa cells is listed as 0.855.
`COc1cccc2c1C(=O)c1c(O)c3c(c(O)c1C2=O)C[C@@](O)(C(=O)CO)C[C@@H]3O[C@H]1C[C@H](N)[C@H](O)[C@H](C)O1` [Dox, doxorubicin, reference compound]: the EC50 in the series on Saos-2 cells (SAOS-2, 72 h cytotoxicity, MTT, Activated Dox: cells pre-incubated with 500 μM 2 for 6 h, then TCO-Dox 72 h, read-out: EC50, Saos-2) turned out to be 425 nM; in the series with HUVECs (72 h cytotoxicity, MTT, Activated Dox: cells pre-incubated with 500 μM 2 for 6 h, then TCO-Dox 72 h, read-out: EC50, HUVECs) it was 133 nM; in the series on CCC-HEH-2 cells (72 h cytotoxicity, MTT, Activated Dox: cells pre-incubated with 500 μM 2 for 6 h, then TCO-Dox 72 h), 84 nM; in the series with HeLa cells (72 h cytotoxicity, MTT, Activated Dox: cells pre-incubated with 500 μM 2 for 6 h, then TCO-Dox 72 h, read-out: EC50, HeLa), 732 nM. Further, the “EC50 ratio CCC-HEH-2/Saos-2” value with Saos-2 cells was 0.198. The “EC50 ratio HUVECs/Saos-2” value with Saos-2 cells was found to be 0.313. The death of mice entry is listed as “the mice began to die eleven day” in series [3] (6.0 mg kg-1 Dox), “the mice began to die six” in series [3] (7.5 mg kg-1 Dox) and “the mice died within five days” in series [3] (15 mg kg-1 Dox). Moreover, in the series on HeLa tumours, the tumour growth entry was “tumour growth could be inhibited”. In the series with HeLa cells, the “EC50 ratio CCC-HEH-2/HeLa” value was found to be 0.115. Besides, in the series on HeLa cells, the “EC50 ratio HUVECs/HeLa” value is given as 0.182.
